Results taken from patent US11364211B2, “Methods for selecting phosphatase selective and non-selective phosphatase inhibitors” (MEDICAL RESEARCH COUNCIL, priority 2015, dated 2022).
Entries after “also recorded” stand apart in the source; their conditions may differ.

Columns and labels:
PPP1R15A [1] = assay: Induction of PPP1R15A in mouse brain (qPCR); format: in vivo; details: mice, indicated doses
Procedure: RNA from brain was extracted in trizol (Life Technologies). RNA concentration was measured using a NANODROP1000 spectrophotometer (Thermo Fisher Scientific), and 1 μg was reverse transcribed to cDNA using a SuperScript reverse transcriptase (Life Technologies). Quantitative PCR with primers GAPDH (f): […], GAPDH (r): […], PPP1R15A (f): […];
and PPP1R15A (r): […] was performed using SYBR® Select Master Mix (Ref 4472908, applied biosystems) on a Corbett Rotor-Gene version 6000. Expression of each gene was normalized to the housekeeping gene GAPDH and expressed as fold change calculated using Paffl equation.
PPP1R15A induction was assessed by qPCR on total mRNA extracted from brains of mice treated with the indicated doses of compound of Example 1.

ATF4 = assay: Induction of ATF4 expression in cells (immunoblot); format: cell-based, human; details: HeLa cells, 10 μM
Procedure: (§1) Cells (90,000 cells/ml) were plated in a 24-well plate and treated as indicated. At the end of treatment cells were lysed in 150 μl Laemmli Buffer. Lysates were boiled at 95° C. for 5 minutes, sonicated and resolved on 4-12% Bolt Bis-Tris Plus Gels (Thermo Fisher Scientific). Proteins were transferred to the nitrocellulose membrane using the iBlot 2 system (Thermo Fisher Scientific) and analysed using the following antibodies: e-IF2α-P (44-728G, Thermo Fisher Scientific, 1:1000), e-IF2α (ab5369, Abcam, 1:1000), tubulin (T5168, Sigma-Aldrich, 1:4000), BiP (610978, BD Biosciences Pharmingen, 1:1000), ATF4 (sc-200, Santa Cruz Biotechnology, 1:500), Ppp1r15a (10449-1-AP, Proteintech, 1:1000) and Ppp1r15b (14634-1-AP, Proteintech, 1:1000). Proteins were visualized using ECL Prime (GE Healthcare).

eIF2α phosphorylation = eIF2α phosphorylation during stress-recovery after DTT wash out; format: cell-based; details: 30 minute 1 mM DTT and wash out
Procedure: The inventors reasoned that a PPP1R15B inhibitor should prolong eIF2α phosphorylation following stress. To reveal this activity, it was crucial to search for conditions where PPP1R15A is not expressed, to avoid confounding effects. The inventors took advantage of the fast kinetic and reversibility of stress induction by DTT (Bertolotti et al., Nat. Cell. Biol., 2, 326-332, 2000; Jousse et al., 2003) and monitored eIF2α phosphorylation in cells following a 30 minute treatment with 1 mM DTT and a wash out. […] Thus, careful monitoring of the kinetic of eIF2α dephosphorylation in the early phase of a stress-recovery paradigm such as the one described here can be used to identify other PPP1R15B inhibitors.

MEFs = assay: Translation rates by 35S-methionine labelling in r15a mut/mut or r15b mut/mut MEFs; format: cell-based, mouse
Procedure: (§2) HeLa cells were maintained in Dulbecco's Modified Eagle's Media (DMEM) supplemented with penicillin, streptomycin, glutamine and 10% fetal bovine serum (FBS). Ppp1r15a −/− and Ppp1r15b −/− MEF cells were maintained in DMEM supplemented with penicillin, streptomycin, glutamine, 55 μM β-mercaptoethanol, 1X non-essential amino acids (Sigma) and 10% FBS.
Cells (90,000 cells/ml) were plated in 12-well plates, treated as indicated, labelled with 100 μCi/ml ^35S-methionine (Hartmann Analytic) for 10 minutes at 37° C., washed with ice-cold PBS and lysed in 120 μl Laemmli Buffer. Lysates were boiled at 95° C. for 5 minutes, sonicated and resolved on 4-12% Bolt Bis-Tris Plus Gels (Thermo Fisher Scientific). Gels were then stained with InstantBlue (Expedeon) and analyzed by phosphorimaging.

PPP1R15A [2] = assay: Induction of PPP1R15A expression in cells (immunoblot); format: cell-based, human; details: absence of stress
Procedure: For immunoblots, HeLa cells (80,000 cells/ml) were plated in 12-well plates 24 hours before each experiment. Immediately after the indicated treatments, cells were lysed in 75 μl Laemmli Buffer, boiled at 95° C. for 5 minutes and sonicated. Proteins were separated and analysed as described (Tsaytler et al., Science, 332, 91-94, 2011) with the following antibodies: phospho-elf2α [pS52] and PPP1R15A/GADD34 (10449-1-AP; ProteinTech Group, 1/1000 dilution).
as §1

[3] = system: eIF2α phosphorylation in MEFs; assay: eIF2α phosphorylation in r15a mut/mut or r15b mut/mut MEFs (immunoblot); format: cell-based, mouse
Procedure: as §2, §1

HD-N171-82Q mice = assay: Huntington's disease mouse model, motor performance (rotarod); format: in vivo; details: 2 mg/kg orally daily for 4 weeks
Procedure: To assess the efficacy of a compound of Example 1 in ameliorating a disease phenotype, 28-day old transgenic mice or littermate control were orally administered daily with a compound of Example 1 (2 mg/kg) or vehicle for a duration of 4 weeks. Disease progression was evaluated by weighting the mice during the treatment and by assessing their motor performances after 4 weeks of treatment.
Eight weeks old HD-N171-82Q mice and their wild-type littermates were first habituated for 1 min on a static rotor and 1 min at constant speed (4 rpm). Habituation was repeated. The test session consisted of four trials with 15 min intervals in between. For each trial 5 mice were placed on an accelerating rotor (4 to 40 rpm) and the latency to fall was recorded, with a maximum limit for individual animal set at 300 s.
To produce an experimental group HD-N171-82Q transgenic males were crossed with C3H/B6 F1 wild type females. 4 weeks old transgenic males and their wild type littermate male controls were randomized in different groups and treated with TST3 for 4 weeks.
TST3 treatment of HD-N171-82Q transgenic males and their wild type littermate male controls started at 4 weeks of age and was continued for 4 weeks before the test. […] In each trial mice were allowed to run on an accelerating rod from 4 to 40 rpm for up to 300 seconds and the latency to fall was counted. […]

What does the source list for `[H]/N=C(\N)NN=Cc1cccc(Cl)c1Cl` [Example 1, (E)-2-(2,3-dichlorobenzylidene)hydrazine-1-carboximidamide]?
induction of PPP1R15A mRNA in brain (PPP1R15A [1]): induced PPP1R15A; also recorded: induction of R15A; expression of ATF4 in cells (ATF4): induced expression; eIF2α phosphorylation following stress (eIF2α phosphorylation): prolongs eIF2α phosphorylation; translation attenuation upon inactivation of R15A (MEFs): rendered persistent; expression of PPP1R15A (R15A) in cells (PPP1R15A [2]): induce PPP1R15A; also recorded: induces expression of R15A; expression of PPP1R15A (R15A) in cells (PPP1R15A [2]; listed as TST3): induced expression; eIF2α phosphorylation upon inactivation of R15A ([3]; r15a mut/mut MEFs): rendered persistent; effect on eIF2α phosphorylation in r15b knock out cells ([3]; r15b mut/mut MEFs, 10 μM, listed as TST3): activity is abolished; motor performance / disease prevention in Huntington's disease mice (HD-N171-82Q mice): ameliorates Huntington's disease; also recorded: prevented the motor performances impairment; also recorded: preventing disease
